# In US6774121B1, “Phospholipid prodrugs of anti-proliferative drugs” (D-Pharm, Ltd., priority 1999, dated 2004):
# “And” between values parts separate entries of the source, which are not always exact repeats. Equal entries are not always repeated. Where two headings read alike, the source gives them in different places.
# How the values were obtained:
# [1] = test system: J774; experiment: MTT cytotoxicity on tumor cell lines, J774 (Example 8); type: cell-based; settings: J774, Myeloma (mouse), 72 hours
# Method: (§1) Cell viability was analyzed after 72 hours incubation (37° C., 5% CO2) using the colorimetric MTT assay (Mosmann (1983) J. Immunol Methods 65: 55-63).
# [2] = test system: L1210 murine leukemia cells; experiment: Survival of mice transplanted i.p. with L1210 leukemia cells; type: in vivo, mouse
# Method: The anti-tumor effects of DP-MTX were evaluated in vivo on mice transplanted with L1210 murine leukemia cells.
# Mice of strain B6D2F 1/J (stock number 100006), which are F1 cross of C57/BJ×DBA/2J, were purchased from The Jackson Laboratory (JAX Mice & Mouse Model Related Services, […], USA). Animals were allowed 10 days adjustment time at our animal care facility before initiation of the experiment.
# Mice were transplanted with 1×10^6 L1210 (mouse leukemia; ATCC# CCL-219) or L1210MTX (RFC-mediated MTX resistant L1210 mutant; provided by Dr. Y. Assraf, Technion, Israel) cells by injection into the peritoneum (i.p.) (day 1). […] Another group of 8 animals were injected with vehicle solution (2% propylene-glycol, 0.2% Tween-80 in PBS) and serve as control group. […] Mice survival was monitored daily until the end of the experiment on day 21.
# [3] = test system: RFC-mediated MTX-resistant cell line (L1210-MTX); experiment: MTT cytotoxicity, L1210-MTX cells (Example 9); type: cell-based; settings: Mus musculus
# [4] = test system: A431; experiment: MTT cytotoxicity on tumor cell lines, A431 (Example 8); type: cell-based; settings: A-431, A431, Epidermoid carcinoma (human), 72 hours
# Method: as §1
# [5] = test system: N87; experiment: MTT cytotoxicity on tumor cell lines, N87 (Example 8); type: cell-based; settings: N87, Gastric carcinoma (human), 72 hours
# Method: as §1
# [6] = test system: L1210 cells; experiment: Survival of pre-treated mice after L1210 tumor cell implantation; type: in vivo, mouse; settings: pre-treatment 3 mg/Kg or equivalent i.p. every other day for 21 days
# Method: Protection against tumor growth was examined in mice pretreated with MTX or DP-MTX-71.
# At the end of this regimen, the mice were injected with 1×10^6 L1210 cells into the peritoneum. The animals were then monitored for viability for 12 days subsequent to the injection of the tumor cells.
# [7] = test system: MTX-resistant mutant cells, CEM-MTX; experiment: MTT cytotoxicity with and without Leucovorin, CEM-MTX cells (Example 6); type: cell-based; settings: Homo sapiens, 72 hours
# Method: Leucovorin is a reduced folate, used in chemotherapy with high doses of methotrexate for ‘rescue’ of host from toxicity.
# Wild type human leukemia CEM cells or the MTX-resistant mutant cells, CEM-MTX, were plated into 96 well plates containing RPMI, 10% FCS at a concentration of 5×10^4 cells/ml. […] Leucovorin, at a final concentration of 10 μM, was added to some of the plates as indicated. The plates were incubated for 72 hours (37° C., 5% CO2) before being assayed for viability using the colorimetric MTT assay (Mosmann (1983) J. Immunol Methods 65: 55-63).
# [8] = test system: C6; experiment: MTT cytotoxicity on tumor cell lines, C6 (Example 8); type: cell-based; settings: C6, Glioma (rat), 72 hours
# Method: as §1
# [9] = test system: Jurkat; experiment: MTT cytotoxicity on tumor cell lines, Jurkat (Example 8); type: cell-based; settings: Homo sapiens, T-cell lymphoma, 72 hours
# Method: as §1
# [10] = test system: T47D; experiment: MTT cytotoxicity on tumor cell lines, T47D (Example 8); type: cell-based; settings: Mammary cancer (human), 72 hours
# Method: as §1
# [11] = test system: human leukemia cell line CCRF-CEM (CEM); experiment: MTT cell growth inhibition, CEM cells (Example 4); type: cell-based; settings: Homo sapiens, CCRF-CEM; 72 hours, MTT assay; read-out: EC50, nMol CEM
# Method: (§2) A series of methotrexate derivatives were screened for their inhibitory effect on cell growth. Three tumor cell lines were used for this screen: i) human leukemia cell line CCRF-CEM which is MTX-sensitive (herein denoted as CEM), ii) a mutant of CEM cell line which is MTX-resistant due to a mutation in the RFC (herein denoted as CEM-MTX; provided by Dr. […], Technion, Israel), and iii) rat C6 glioma cell line. Cells were seeded at a density of 10^4 cells/ml in RPMI medium supplemented with 10% FCS in 96 well plates. The cultured cells were incubated, during their linear growth phase, in the presence and absence of various concentrations of MTX derivatives. The tested compounds were prepared as 1 mM stock in absolute ethanol or DMSO and were diluted into the medium. The highest vehicle presence in the assay was 5% of the vehicle. After 72 hours at 37° C. the cytotoxic effect on the cells was estimated by using the colorimetric MTT assay (Mosmann (1983) J. Immunol Methods 65: 55-63) that measures mitochondrial reductase activity and serves for quantitative assessment of cellular viability. […] The EC50 values were calculated from dose response curves for each tested compound.
# [12] = test system: L1210; experiment: MTT cytotoxicity, parent L1210 cells (Example 9); type: cell-based; settings: Mus musculus
# [13] = test system: Du148; experiment: MTT cytotoxicity on tumor cell lines, Du148 (Example 8); type: cell-based; settings: Du148, Prostate cancer (human), 72 hours
# Method: as §1
# [14] = test system: Friend cells (an erythroleukemic cell line); experiment: MTT cytotoxicity, Friend cells (Example 5); type: cell-based; settings: 72 hour
# Method: The toxicity of methotrexate derivatives of the invention (DP-MTX) was evaluated in an additional cell-culture system. The doses required to inhibit the growth of cultured Friend cells (an erythroleukemic cell line) by 50%, over a 72 hour period (ED50), were determined using a mitochondrial viability (MTT) endpoint assay.
# Friend cells were seeded at a density of 10^4 cells/ml in RPMI medium supplemented with 10% FCS in 96 well plates. The cultured cells were incubated, during their linear growth phase, in the presence and absence of various concentrations of MTX derivatives. After 72 hours at 37° C., cell viability was estimated by using the colorimetric MTT assay.
# [15] = test system: rat C6 glioma cell line; experiment: MTT cell growth inhibition, C6 glioma cells (Example 4); type: cell-based; settings: Rattus norvegicus, C6 glioma; 72 hours, MTT assay; read-out: EC50, nMol C6 glioma
# Method: as §2
# [16] = test system: CEM; experiment: MTT cytotoxicity on tumor cell lines, CEM (Example 8); type: cell-based; settings: CCRF-CEM, T-cell ALL (human), 72 hours
# Method: as §1
smiles,measurement,setting,value
"CN(Cc1cnc2nc(N)nc(N)c2n1)c1ccc(C(=O)N[C@@H](CCC(=O)O)C(=O)O)cc1 [MTX, Methotrexate]",EC50,[1],112 nM
same,"mice surviving at the end of the experiment, on day 21","[2]; 3 mg/Kg MTX or molar equivalent, i.p. every two days, day 3 to 17",one
same,mortality caused by the treatment by itself,[2]; 3 mg/Kg i.p.,no mortality
same,day on which animal death started,"[2]; 3 mg/Kg i.p. every two days, day 3 to 17",15 days
same,EC50,[3],1080 nM
same,EC50,[4],850 nM
same,EC50,[5],13500 nM
same,Surviving mice,[6]; 9 days after tumor implantation,6/6
same,Surviving mice,[6]; 10 days after tumor implantation,4/6
same,Surviving mice,[6]; 11 days after tumor implantation,3/6
same,Surviving mice,[6]; 12 days after tumor implantation,2 and 2/6
same,EC50,"[7]; 10 μM Leucovorin, read-out: EC50, nMol + 10 μM Leucovorin",20000 ± 12800 nM
same,EC50,"[7]; read-out: EC50, nMol No Leucovorin",2540 ± 224 nM
same,EC50,[8],46 nM
same,EC50,[9],21 nM
same,EC50,[10],50000 nM
same,EC50,[11],21 nM
same,EC50,[12],14 nM
same,EC50,[13],29 nM
same,ED50,[14],10 nmol
same,EC50,[15],46 nM
same,EC50,[16],21 nM
